Key:
[1] = target: Serine/threonine-protein kinase ATR (Homo sapiens, UniProt Q13535); test: Inhibition of human recombinant FLAG-tagged full length ATR expressed in mammalian cell line co-expressing human recombinant cMyc-tagged full length ATRIP
[2] = system: Tyrosine-protein kinase ABL1 (Homo sapiens), P00519 [T315I]; test: Inhibition of recombinant human Abl T315I mutant (27 to end residues) at 1 uM using EAIYAAPFAKKK as substrate after 40 mins in presence of [gamma-33P]ATP by scintillation counting method
[3] = target: CDK4/Cyclin D3 (Homo sapiens) (UniProt P11802+P30281); test: Inhibition of recombinant full-length human CDK4/Cyclin D3 at 1 uM using Rb fragment as substrate after 40 mins in presence of [gamma-33P]ATP by scintillation counting method; format: protein-complex assay
[4] = target: Serine-protein kinase ATM (Homo sapiens) (UniProt Q13315); test: Inhibition of recombinant full-length human ATM at 1 uM using GST-cMyc-p53 as substrate after 40 mins in presence of [gamma-33P]ATP by scintillation counting method
[5] = target: CDK9/cyclin T1 (Homo sapiens) (UniProt O60563+P50750); test: Inhibition of recombinant full-length human CDK9/Cyclin T1 at 1 uM using KTFCGTPEYLAPEVRREPRILSEEEQEMFRDFDYIADWC as substrate after 40 mins in presence of [gamma-33P]ATP by scintillation counting method; format: protein-complex assay
[6] = system: Serine/threonine-protein kinase Chk2 (Homo sapiens), O96017 [I157T]; test: Inhibition of recombinant human CHK2 I157T mutant (5 to end residues) at 1 uM using KKKVSRSGLYRSPSMPENLNRPR as substrate after 40 mins in presence of [gamma-33P]ATP by scintillation counting method
[7] = system: Mast/stem cell growth factor receptor Kit (Homo sapiens), P10721 [V560G]; test: Inhibition of recombinant human cKit V560G mutant (544 to end residues) at 1 uM using GGMEDIYFEFMGGKKK as substrate after 40 mins in presence of [gamma-33P]ATP by scintillation counting method
[8] = target: RAF proto-oncogene serine/threonine-protein kinase (Homo sapiens) (UniProt P04049); test: Inhibition of recombinant human c-RAF (306 to end residues) at 1 uM using inactive MEK1 as substrate after 40 mins in presence of [gamma-33P]ATP by scintillation counting method
[9] = target: Epithelial discoidin domain-containing receptor 1 (Homo sapiens) (UniProt Q08345); test: Inhibition of recombinant human DDR1 (492 to end residues) at 1 uM using KKKSPGEYVNIEFG as substrate after 40 mins in presence of [gamma-33P]ATP by scintillation counting method
[10] = target: Dual specificity tyrosine-phosphorylation-regulated kinase 1B (Homo sapiens) (UniProt Q9Y463); test: Inhibition of recombinant full-length human DYRK1B at 1 uM using RRRFRPASPLRGPPK as substrate after 40 mins in presence of [gamma-33P]ATP by scintillation counting method
[11] = target: Dual specificity tyrosine-phosphorylation-regulated kinase 3 (Homo sapiens) (UniProt O43781); test: Inhibition of recombinant full-length human DYRK3 at 1 uM using RRRFRPASPLRGPPK as substrate after 40 mins in presence of [gamma-33P]ATP by scintillation counting method
[12] = target: Ephrin type-A receptor 1 (Homo sapiens) (UniProt P21709); test: Inhibition of recombinant human EPHA1 ([…]) at 1 uM using KKKSPGEYVNIEFG as substrate after 40 mins in presence of [gamma-33P]ATP by scintillation counting method
[13] = target: Ephrin type-A receptor 4 (Homo sapiens) (UniProt P54764); test: Inhibition of recombinant human EPHA4 (601 to 892 residues) at 1 uM using poly(Glu,Tyr) 4:1 as substrate after 40 mins in presence of [gamma-33P]ATP by scintillation counting method
[14] = target: Ephrin type-B receptor 2 (Homo sapiens) (UniProt P29323); test: Inhibition of recombinant human EPHB2 (560 to end residues) at 1 uM using poly(Glu,Tyr) 4:1 as substrate after 40 mins in presence of [gamma-33P]ATP by scintillation counting method
[15] = target: eIF-2-alpha kinase GCN2 (Homo sapiens) (UniProt Q9P2K8); test: Inhibition of recombinant full-length human GCN2 at 1 uM using RSRSRSRSRSRSRSR as substrate after 40 mins in presence of [gamma-33P]ATP by scintillation counting method
[16] = target: Mitogen-activated protein kinase kinase kinase kinase 1 (Homo sapiens) (UniProt Q92918); test: Inhibition of recombinant human HPK1 (1 to 346 residues) at 1 uM using myelin basic protein as substrate after 40 mins in presence of [gamma-33P]ATP by scintillation counting method
[17] = target: Mitogen-activated protein kinase 1 (Homo sapiens) (UniProt P28482); test: Inhibition of recombinant full-length human MAPK2 at 1 uM using myelin basic protein as substrate after 40 mins in presence of [gamma-33P]ATP by scintillation counting method
[18] = target: Serine/threonine-protein kinase mTOR (Homo sapiens) (UniProt P42345); test: Inhibition of recombinant full-length human mTOR at 1 uM after 40 mins in presence of [gamma-33P]ATP by scintillation counting method
[19] = target: Serine/threonine-protein kinase Nek7 (Homo sapiens) (UniProt Q8TDX7); test: Inhibition of recombinant human NEK7 (2 to end residues) at 1 uM using FLAKSFGSPNRAYKK as substrate after 40 mins in presence of [gamma-33P]ATP by scintillation counting method
[20] = target: Phosphatidylinositol 4-phosphate 5-kinase type-1 alpha (Homo sapiens) (UniProt Q99755); test: Inhibition of recombinant full-length human PIP5K1alpha at 1 uM using phosphatidylinositol 4-phosphate/phosphatidylserine as substrate after 40 mins in presence of [gamma-33P]ATP by scintillation counting method
[21] = target: Protein kinase C eta type (Homo sapiens) (UniProt P24723); test: Inhibition of recombinant human PKCeta (2 to end residues) at 1 uM using ERMRPRKRQGSVRRRV as substrate after 40 mins in presence of [gamma-33P]ATP by scintillation counting method
[22] = target: Mitogen-activated protein kinase 14 (Homo sapiens) (UniProt Q16539); test: Inhibition of recombinant full-length human SAPK2a at 1 uM using myelin basic protein as substrate after 40 mins in presence of [gamma-33P]ATP by scintillation counting method
[23] = target: Mitogen-activated protein kinase 13 (Homo sapiens) (UniProt O15264); test: Inhibition of recombinant full-length human SAPK4 at 1 uM using myelin basic protein as substrate after 40 mins in presence of [gamma-33P]ATP by scintillation counting method
[24] = target: TGF-beta receptor type-1 (Homo sapiens) (UniProt P36897); test: Inhibition of recombinant activated human TGFBR1 (200 to end residues) at 1 uM using casein as substrate after 40 mins in presence of [gamma-33P]ATP by scintillation counting method
Chain of TGF-beta receptor type-1 (Homo sapiens) (P36897 whole entry): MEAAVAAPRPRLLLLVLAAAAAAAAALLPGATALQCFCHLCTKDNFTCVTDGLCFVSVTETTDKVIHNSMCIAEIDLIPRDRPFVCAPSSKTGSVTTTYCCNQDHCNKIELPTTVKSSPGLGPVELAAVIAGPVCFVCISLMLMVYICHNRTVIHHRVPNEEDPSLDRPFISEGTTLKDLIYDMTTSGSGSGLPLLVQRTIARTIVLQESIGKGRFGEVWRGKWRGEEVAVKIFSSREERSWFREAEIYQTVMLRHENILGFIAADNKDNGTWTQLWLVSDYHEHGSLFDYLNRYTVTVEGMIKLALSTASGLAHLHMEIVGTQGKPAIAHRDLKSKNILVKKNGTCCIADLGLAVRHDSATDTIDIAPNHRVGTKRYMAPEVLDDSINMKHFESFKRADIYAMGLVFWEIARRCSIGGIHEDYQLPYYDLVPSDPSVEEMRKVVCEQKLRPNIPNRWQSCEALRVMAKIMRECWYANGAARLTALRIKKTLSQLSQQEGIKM

Chain of Serine/threonine-protein kinase Chk2 (Homo sapiens), O96017 [I157T] (O96017 whole entry I157T): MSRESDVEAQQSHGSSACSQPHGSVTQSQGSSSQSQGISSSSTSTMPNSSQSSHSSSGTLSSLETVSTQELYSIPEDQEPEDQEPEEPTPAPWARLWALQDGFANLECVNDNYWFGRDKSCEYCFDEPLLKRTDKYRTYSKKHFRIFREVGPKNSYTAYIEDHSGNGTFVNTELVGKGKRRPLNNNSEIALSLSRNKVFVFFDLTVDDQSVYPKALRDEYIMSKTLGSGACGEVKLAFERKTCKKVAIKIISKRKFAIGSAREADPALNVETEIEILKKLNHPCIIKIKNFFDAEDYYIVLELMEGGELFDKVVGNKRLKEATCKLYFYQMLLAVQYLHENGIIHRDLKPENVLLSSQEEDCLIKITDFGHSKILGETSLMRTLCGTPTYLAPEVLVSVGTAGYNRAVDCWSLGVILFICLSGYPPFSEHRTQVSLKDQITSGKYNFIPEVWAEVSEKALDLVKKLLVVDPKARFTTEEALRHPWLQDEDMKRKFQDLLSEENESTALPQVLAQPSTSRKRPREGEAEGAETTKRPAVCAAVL
Chain of Serine/threonine-protein kinase Nek7 (Homo sapiens) (Q8TDX7 whole entry, looked up): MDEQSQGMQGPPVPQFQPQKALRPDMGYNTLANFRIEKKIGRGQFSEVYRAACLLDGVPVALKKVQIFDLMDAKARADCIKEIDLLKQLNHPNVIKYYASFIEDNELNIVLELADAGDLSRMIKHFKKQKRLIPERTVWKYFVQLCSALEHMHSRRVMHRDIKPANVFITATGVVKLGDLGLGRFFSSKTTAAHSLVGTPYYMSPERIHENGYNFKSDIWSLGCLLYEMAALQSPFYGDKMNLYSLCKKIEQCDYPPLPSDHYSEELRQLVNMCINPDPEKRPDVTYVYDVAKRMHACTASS
Chain of Mitogen-activated protein kinase 14 (Homo sapiens) (Q16539 whole entry): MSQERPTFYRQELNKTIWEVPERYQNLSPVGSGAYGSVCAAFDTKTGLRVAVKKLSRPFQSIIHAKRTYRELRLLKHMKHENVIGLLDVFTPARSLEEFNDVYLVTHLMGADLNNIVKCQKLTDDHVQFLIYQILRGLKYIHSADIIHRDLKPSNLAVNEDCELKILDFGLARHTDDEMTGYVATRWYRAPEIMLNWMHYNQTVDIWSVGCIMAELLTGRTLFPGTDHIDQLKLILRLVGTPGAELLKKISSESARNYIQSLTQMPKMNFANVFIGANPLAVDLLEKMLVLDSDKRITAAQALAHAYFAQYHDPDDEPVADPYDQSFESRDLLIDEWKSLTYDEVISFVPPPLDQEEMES
Chain of Dual specificity tyrosine-phosphorylation-regulated kinase 1B (Homo sapiens) (Q9Y463 whole entry, looked up): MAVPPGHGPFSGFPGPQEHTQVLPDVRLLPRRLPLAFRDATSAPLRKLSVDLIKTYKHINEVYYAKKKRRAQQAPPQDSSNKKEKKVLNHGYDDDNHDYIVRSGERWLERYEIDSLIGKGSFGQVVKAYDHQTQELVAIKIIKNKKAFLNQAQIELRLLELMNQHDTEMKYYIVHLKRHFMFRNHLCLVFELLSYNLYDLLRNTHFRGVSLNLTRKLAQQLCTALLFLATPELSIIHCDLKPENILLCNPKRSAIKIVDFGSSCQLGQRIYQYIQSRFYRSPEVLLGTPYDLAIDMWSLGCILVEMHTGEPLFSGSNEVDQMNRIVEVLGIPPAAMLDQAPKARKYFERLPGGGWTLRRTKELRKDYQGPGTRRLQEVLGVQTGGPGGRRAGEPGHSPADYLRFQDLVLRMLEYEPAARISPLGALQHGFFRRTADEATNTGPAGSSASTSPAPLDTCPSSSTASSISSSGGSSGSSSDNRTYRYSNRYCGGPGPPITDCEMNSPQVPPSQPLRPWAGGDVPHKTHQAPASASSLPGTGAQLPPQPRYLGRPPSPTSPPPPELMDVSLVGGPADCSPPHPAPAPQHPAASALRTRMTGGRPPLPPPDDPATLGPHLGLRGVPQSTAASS
Chain of Epithelial discoidin domain-containing receptor 1 (Homo sapiens) (Q08345 whole entry, the tested form may be a part): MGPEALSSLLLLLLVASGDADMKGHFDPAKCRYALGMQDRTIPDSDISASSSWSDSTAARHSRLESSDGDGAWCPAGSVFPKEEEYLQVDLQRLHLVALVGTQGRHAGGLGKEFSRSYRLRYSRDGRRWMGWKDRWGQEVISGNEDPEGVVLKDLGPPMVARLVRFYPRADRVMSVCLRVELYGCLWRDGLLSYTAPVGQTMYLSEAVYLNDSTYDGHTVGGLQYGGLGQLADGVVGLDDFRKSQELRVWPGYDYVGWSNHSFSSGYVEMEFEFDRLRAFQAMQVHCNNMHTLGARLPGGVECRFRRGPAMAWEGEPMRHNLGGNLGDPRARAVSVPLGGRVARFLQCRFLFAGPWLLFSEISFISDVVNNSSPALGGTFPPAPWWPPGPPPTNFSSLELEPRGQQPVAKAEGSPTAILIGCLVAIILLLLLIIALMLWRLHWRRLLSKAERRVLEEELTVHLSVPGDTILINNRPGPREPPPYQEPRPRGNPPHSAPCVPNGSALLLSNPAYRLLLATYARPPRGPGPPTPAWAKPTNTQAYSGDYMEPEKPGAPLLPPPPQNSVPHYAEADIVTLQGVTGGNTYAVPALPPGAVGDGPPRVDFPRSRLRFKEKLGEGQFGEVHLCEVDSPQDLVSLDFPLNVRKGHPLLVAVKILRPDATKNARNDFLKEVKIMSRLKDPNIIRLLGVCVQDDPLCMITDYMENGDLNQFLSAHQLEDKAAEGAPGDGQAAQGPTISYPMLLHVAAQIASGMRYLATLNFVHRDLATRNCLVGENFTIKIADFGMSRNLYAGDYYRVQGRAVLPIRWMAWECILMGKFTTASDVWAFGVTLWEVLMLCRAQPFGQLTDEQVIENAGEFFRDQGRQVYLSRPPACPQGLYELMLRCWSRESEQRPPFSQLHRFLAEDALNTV
Chain of Mitogen-activated protein kinase 13 (Homo sapiens) (O15264 whole entry): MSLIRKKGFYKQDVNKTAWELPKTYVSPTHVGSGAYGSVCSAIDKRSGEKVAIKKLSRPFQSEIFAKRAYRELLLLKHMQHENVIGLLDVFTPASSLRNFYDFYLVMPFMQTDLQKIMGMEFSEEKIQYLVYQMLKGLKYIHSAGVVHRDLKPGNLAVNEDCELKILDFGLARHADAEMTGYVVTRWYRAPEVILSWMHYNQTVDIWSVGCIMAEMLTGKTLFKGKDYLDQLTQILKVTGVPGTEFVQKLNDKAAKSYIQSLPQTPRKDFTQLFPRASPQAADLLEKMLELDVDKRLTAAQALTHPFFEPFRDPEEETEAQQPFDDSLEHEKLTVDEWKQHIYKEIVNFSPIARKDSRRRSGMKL
Chain of Phosphatidylinositol 4-phosphate 5-kinase type-1 alpha (Homo sapiens) (Q99755 whole entry): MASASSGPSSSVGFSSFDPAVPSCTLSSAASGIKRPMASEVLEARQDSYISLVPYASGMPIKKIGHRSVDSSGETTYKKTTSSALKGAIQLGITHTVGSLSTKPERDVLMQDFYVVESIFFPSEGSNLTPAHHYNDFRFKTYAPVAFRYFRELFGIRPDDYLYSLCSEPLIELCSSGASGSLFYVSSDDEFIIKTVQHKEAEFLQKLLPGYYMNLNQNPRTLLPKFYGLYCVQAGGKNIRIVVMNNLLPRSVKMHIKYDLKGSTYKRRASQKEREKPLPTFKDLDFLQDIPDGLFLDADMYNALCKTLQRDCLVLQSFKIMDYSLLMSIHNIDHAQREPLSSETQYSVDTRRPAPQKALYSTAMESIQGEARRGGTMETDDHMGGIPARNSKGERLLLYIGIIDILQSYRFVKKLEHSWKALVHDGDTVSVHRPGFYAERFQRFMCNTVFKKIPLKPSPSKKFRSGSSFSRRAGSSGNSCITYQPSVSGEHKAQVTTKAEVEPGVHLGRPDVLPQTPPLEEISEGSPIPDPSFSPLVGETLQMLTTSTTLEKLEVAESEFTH
Chain of Dual specificity tyrosine-phosphorylation-regulated kinase 3 (Homo sapiens) (O43781 whole entry): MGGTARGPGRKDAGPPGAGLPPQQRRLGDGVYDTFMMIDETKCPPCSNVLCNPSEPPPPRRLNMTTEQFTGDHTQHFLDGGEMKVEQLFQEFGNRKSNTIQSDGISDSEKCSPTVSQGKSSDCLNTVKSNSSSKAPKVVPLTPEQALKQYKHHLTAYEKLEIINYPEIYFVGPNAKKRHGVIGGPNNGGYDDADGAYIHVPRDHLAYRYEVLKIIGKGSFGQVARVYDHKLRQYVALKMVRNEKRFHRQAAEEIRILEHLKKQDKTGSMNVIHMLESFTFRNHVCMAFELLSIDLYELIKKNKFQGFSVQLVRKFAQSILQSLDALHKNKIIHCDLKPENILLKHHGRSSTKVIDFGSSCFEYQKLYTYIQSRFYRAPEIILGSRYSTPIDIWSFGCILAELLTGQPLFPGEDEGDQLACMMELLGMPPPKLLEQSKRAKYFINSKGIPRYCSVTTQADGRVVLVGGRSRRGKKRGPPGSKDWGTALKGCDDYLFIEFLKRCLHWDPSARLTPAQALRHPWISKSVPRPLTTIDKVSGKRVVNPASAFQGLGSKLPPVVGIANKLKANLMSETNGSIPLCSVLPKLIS

Q: With CS(=O)(=O)c1ccc(-n2nc(-c3cnc4[nH]ccc4c3)c3c(N)ncnc32)cc1 as the molecule, how does the IC50 [1] read?
A: Its IC50 is 0.066 µM.

Q: What about the inhibition [2] of the same molecule?
A: The inhibition was 13%.

Q: And the inhibition [3]?
A: The inhibition was -9%.

Q: What about the inhibition [4] of the same molecule?
A: Its inhibition is 28%.

Q: What about the inhibition [5] of the same molecule?
A: The inhibition was 7%.

Q: What about the inhibition [6] of the same molecule?
A: The inhibition was -2%.

Q: And the inhibition [7]?
A: The inhibition was 76%.

Q: And the inhibition [8]?
A: Its inhibition is -1%.

Q: And the inhibition [9]?
A: Its inhibition is 92%.

Q: What about the inhibition [10] of the same molecule?
A: The inhibition was -4%.

Q: And the inhibition [11]?
A: Its inhibition is -10%.

Q: And the inhibition [12]?
A: The inhibition was 24%.

Q: And the inhibition [13]?
A: Its inhibition is 1%.

Q: What about the inhibition [14] of the same molecule?
A: Its inhibition is 2%.

Q: What about the inhibition [15] of the same molecule?
A: Its inhibition is 2%.

Q: What about the inhibition [16] of the same molecule?
A: Its inhibition is 2%.

Q: What about the inhibition [17] of the same molecule?
A: Its inhibition is 1%.

Q: And the inhibition [18]?
A: Its inhibition is 65%.

Q: And the inhibition [19]?
A: The inhibition was -1%.

Q: And the inhibition [20]?
A: Its inhibition is 2%.

Q: What about the inhibition [21] of the same molecule?
A: Its inhibition is 6%.

Q: What about the inhibition [22] of the same molecule?
A: Its inhibition is -5%.

Q: What about the inhibition [23] of the same molecule?
A: Its inhibition is -5%.

Q: And the inhibition [24]?
A: The inhibition was 76%.

Source: ChEMBL document CHEMBL4190187, “Discovery of pyrazolopyrimidine derivatives as novel inhibitors of ataxia telangiectasia and rad3 related protein (ATR)” (Bioorg Med Chem Lett, 2017)
